Test results: patent US20240150377A1, “MODULATORS OF CYSTIC FIBROSIS TRANSMEMBRANE CONDUCTANCE REGULATOR” (VERTEX PHARMACEUTICALS INCORPORATED, priority 2020, published 2024)
pEC50: −log10 of the molar value. Read-outs that look alike come from different tables or passages of the source.

Target: CFTR (Homo sapiens, UniProt P13569)
Test: Membrane potential dye, Enteroid Assay A
Type: cell-based
Details: for Ent. A Max Activity: chloride transport as % of triple combination control (Enteroid Assay A); for pEC50: human enteroid cells, 18-24 hours, acute 10 μM forskolin and 300 nM ivacaftor, read-out: Ent. A EC50
Summary of the method: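 % Activity: chloride transport relative to a 3 μM/3 μM corrector pair plus 300 nM acute potentiator control. Primary human enteroid cells, 18-24 h compound exposure at 37 °C; membrane potential dye (methyl oxonol) fluorescence over 15 min after forskolin (10 μM)/IBMX (100 μM)/Compound III (300 nM) stimulation in chloride-free buffer.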

Chain of CFTR (P13569 with tags, fused parts or gaps DEL508-508): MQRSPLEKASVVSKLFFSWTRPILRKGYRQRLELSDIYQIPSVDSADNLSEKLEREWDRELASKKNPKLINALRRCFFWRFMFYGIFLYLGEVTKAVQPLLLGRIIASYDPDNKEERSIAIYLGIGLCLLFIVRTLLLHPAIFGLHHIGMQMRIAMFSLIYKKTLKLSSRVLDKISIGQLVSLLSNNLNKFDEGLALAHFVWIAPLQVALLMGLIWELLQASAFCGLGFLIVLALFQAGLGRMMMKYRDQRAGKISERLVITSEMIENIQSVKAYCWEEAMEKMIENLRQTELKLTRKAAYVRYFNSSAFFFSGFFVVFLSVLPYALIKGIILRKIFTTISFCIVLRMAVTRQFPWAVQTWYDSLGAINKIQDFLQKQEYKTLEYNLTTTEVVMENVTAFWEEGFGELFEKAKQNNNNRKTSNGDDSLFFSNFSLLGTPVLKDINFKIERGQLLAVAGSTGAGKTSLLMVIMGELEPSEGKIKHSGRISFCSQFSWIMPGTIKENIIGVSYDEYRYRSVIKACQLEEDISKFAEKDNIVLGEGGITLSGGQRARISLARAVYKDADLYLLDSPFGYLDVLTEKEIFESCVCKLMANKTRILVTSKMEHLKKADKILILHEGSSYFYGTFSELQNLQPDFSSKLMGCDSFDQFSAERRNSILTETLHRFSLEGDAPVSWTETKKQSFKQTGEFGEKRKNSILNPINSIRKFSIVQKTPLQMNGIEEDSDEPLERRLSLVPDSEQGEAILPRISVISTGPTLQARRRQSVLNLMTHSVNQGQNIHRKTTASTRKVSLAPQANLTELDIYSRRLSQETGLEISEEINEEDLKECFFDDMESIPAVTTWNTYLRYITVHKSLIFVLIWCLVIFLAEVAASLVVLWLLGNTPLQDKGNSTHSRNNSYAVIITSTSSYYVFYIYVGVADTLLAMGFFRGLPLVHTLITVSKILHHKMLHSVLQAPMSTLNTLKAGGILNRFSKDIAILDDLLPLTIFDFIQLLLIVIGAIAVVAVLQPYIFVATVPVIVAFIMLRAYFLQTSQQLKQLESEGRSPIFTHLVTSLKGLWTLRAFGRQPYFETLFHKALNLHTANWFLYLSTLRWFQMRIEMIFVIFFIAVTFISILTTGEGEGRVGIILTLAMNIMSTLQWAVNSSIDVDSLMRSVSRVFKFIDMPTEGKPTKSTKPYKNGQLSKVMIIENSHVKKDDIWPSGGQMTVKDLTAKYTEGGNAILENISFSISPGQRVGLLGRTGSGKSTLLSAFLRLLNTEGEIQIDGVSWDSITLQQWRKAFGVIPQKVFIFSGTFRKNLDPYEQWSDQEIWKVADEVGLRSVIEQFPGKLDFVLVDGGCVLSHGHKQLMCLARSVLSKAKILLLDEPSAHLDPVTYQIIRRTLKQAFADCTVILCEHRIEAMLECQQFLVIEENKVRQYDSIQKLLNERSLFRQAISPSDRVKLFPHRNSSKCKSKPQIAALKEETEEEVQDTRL

Row | Compound | Ent. A Max Activity (Table 7) | pEC50 (Table 7) | Ent. A Max Activity (Table 6) | pEC50 (Table 6)
1 | Cc1cccc(C)c1-c1cc2nc(n1)NS(=O)(=O)c1cccc(c1)CN(Cc1ccccc1-c1ccccc1)[C@H](CC(C)C)CO2 [Compound 1034] | ++ (++ is 30-60%) | > 6.00 | – | –
2 | Cc1cccc(C)c1-c1cc2nc(n1)NS(=O)(=O)c1cccc(c1)C(=O)N(CCC1CCOCC1)[C@H](CCC1(C(F)(F)F)CC1)CO2 (single isomer, unassigned) [Compound 73, 6-(2,6-dimethylphenyl)-2,2-dioxo-12-(2-tetrahydropyran-4-ylethyl)-11-[2-[1-(trifluoromethyl)cyclopropyl]ethyl]-9-oxa-2λ^6-thia-3,5,12,19-tetrazatricyclo[12.3.1.14,8]nonadeca-1(18),4(19),5,7,14,16-hexaen-13-one] | – | – | + (+ is <30%) | –
3 | CCC(CC)CN1C(=O)c2cccc(c2)S(=O)(=O)Nc2nc(cc(-c3c(C)cccc3C)n2)OC[C@H]1CC(C)C [Compound 990] | – | – | +++ (+++ is >60%) | > 6.00
4 | CC(=O)N1CCC2(CC1)CC(CN1C(=O)c3cccc(c3)S(=O)(=O)Nc3nc(cc(-c4c(C)cccc4C)n3)OC[C@H]1CC(C)C)C2 [Compound 90, (11R)-12-[(7-Acetyl-7-azaspiro[3.5]nonan-2-yl)methyl]-6-(2,6-dimethylphenyl)-11-isobutyl-2,2-dioxo-9-oxa-2λ^6-thia-3,5,12,19-tetrazatricyclo[12.3.1.14,8]nonadeca-1(18),4(19),5,7,14,16-hexaen-13-one] | +++ (+++ is >60%) | > 6.00 | – | –
5 | Cc1cccc(C)c1-c1cc2nc(n1)NS(=O)(=O)c1cccc(c1)CN(C(=O)CC1CCN(C)CC1)[C@H](CC(C)C)CO2 [Compound 1048] | +++ (+++ is >60%) | 5.52 to 6.00 | – | –
6 | Cc1cccc(C)c1-c1cc2nc(n1)NS(=O)(=O)c1cccc(c1)C(=O)N(Cc1ccc(=O)[nH]c1)[C@H](CC(C)C)CO2 [Compound 1109] | – | – | +++ (+++ is >60%) | 5.52 to 6.00
7 | Cc1cccc(C)c1-c1cc2nc(n1)NS(=O)(=O)c1cccc(c1)C(=O)N(CCOCc1ccccc1)[C@H](CC(C)C)CO2 [Compound 81, (11R)-12-[2-(Benzyloxy)ethyl]-6-(2,6-dimethylphenyl)-11-(2-methylpropyl)-9-oxa-2λ^6-thia-3,5,12,19-tetraazatricyclo[12.3.1.14,8]nonadeca-1(17),4,6,8(19),14(18),15-hexaene-2,2,13-trione] | – | – | +++ (+++ is >60%) | > 6.00
8 | Cc1cccc(C)c1-c1cc2nc(n1)NS(=O)(=O)c1cccc(c1)C(=O)N(C)C[C@H](CNCCC(C)(C)C)O2 [Compound 1017] | – | – | + (+ is <30%) | –
9 | Cc1cccc(C)c1-c1cc2nc(n1)NS(=O)(=O)c1cccc(c1)C(=O)N(Cc1ccc(N3CCC3)nc1)[C@H](CC(C)C)CO2 [Compound 950] | +++ (+++ is >60%) | > 6.00 | – | –
10 | COc1ccc(CN2C(=O)c3cccc(c3)S(=O)(=O)Nc3nc(cc(-c4c(C)cccc4C)n3)OC[C@H]2CC(C)C)cn1 [Compound 422] | – | – | +++ (+++ is >60%) | > 6.00
11 | COc1ncccc1CN1C(=O)c2cccc(c2)S(=O)(=O)Nc2nc(cc(-c3c(C)cccc3C)n2)OC[C@H]1CC(C)C [Compound 420] | – | – | +++ (+++ is >60%) | > 6.00
12 | Cc1cccc(C)c1-c1cc2nc(n1)NS(=O)(=O)c1cccc(c1)CN(C(=O)CC(C)C)[C@H](CC(C)C)CO2 [Compound 1049] | + (+ is <30%) | – | – | –
13 | C=CC1CN(CCC(C)C)C(=O)c2cccc(c2)S(=O)(=O)Nc2nc(cc(-c3c(C)cccc3C)n2)O1 (stereo not drawn) [Compound 1012] | – | – | ++ (++ is 30-60%) | > 6.00
14 | COc1ccc(CN2C(=O)c3cccc(c3)S(=O)(=O)Nc3nc(cc(-c4c(C)cccc4C)n3)OC[C@H]2C)cc1 [Compound 986] | ++ (++ is 30-60%) | 5.52 to 6.00 | – | –
15 | Cc1cccc(C)c1-c1cc2nc(n1)NS(=O)(=O)c1cccc(c1)C(=O)N(C)CC(c1ccccc1)O2 (stereo not drawn) [Compound 677] | – | – | +++ (+++ is >60%) | > 6.00
16 | COc1cccc(CN2C(=O)c3cccc(c3)S(=O)(=O)Nc3nc(cc(-c4c(C)cccc4C)n3)OC[C@H]2CC(C)C)c1 [Compound 348] | – | – | +++ (+++ is >60%) | > 6.00
17 | Cc1cccc(C)c1-c1cc2nc(n1)NS(=O)(=O)c1cccc(c1)C(=O)N(Cc1ccc(N3CCN(C)CC3)nc1)[C@H](CC(C)C)CO2 [Compound 854] | – | – | +++ (+++ is >60%) | > 6.00
18 | Cc1cccc(C)c1-c1cc2nc(n1)NS(=O)(=O)c1cccc(c1)C(=O)N(Cc1ccc[nH]c1=O)[C@H](CC(C)C)CO2 [Compound 989] | – | – | +++ (+++ is >60%) | 5.52 to 6.00
19 | Cc1cccc(C)c1-c1cc2nc(n1)NS(=O)(=O)c1cccc(c1)C(=O)N(CC(C)C)C[C@H](Cc1ccccc1)O2 [Compound 863] | – | – | +++ (+++ is >60%) | > 6.00

Row | Compound | Ent. A Max Activity (Table 7) | pEC50 (Table 7) | Ent. A Max Activity (Table 6) | pEC50 (Table 6)
20 | Cc1cccc(C)c1-c1cc2nc(n1)NS(=O)(=O)c1cccc(c1)C(=O)N(Cc1ccc(N3CCC(C#N)CC3)nc1)[C@H](CC(C)C)CO2 [Compound 972] | +++ (+++ is >60%) | > 6.00 | – | –
21 | Cc1cccc(C)c1-c1cc2nc(n1)NS(=O)(=O)c1cccc(c1)CN(Cc1ccc3c(c1)OC(F)(F)O3)[C@H](CC(C)C)CO2 [Compound 1032] | ++ (++ is 30-60%) | > 6.00 | – | –
22 | Cc1cccc(C)c1-c1cc2nc(n1)NS(=O)(=O)c1cccc(c1)C(=O)N(Cc1cnn(C)c1)[C@H](CC(C)C)CO2 [Compound 432] | – | – | +++ (+++ is >60%) | > 6.00
23 | CNC(=O)c1ccc(CN2C(=O)c3cccc(c3)S(=O)(=O)Nc3nc(cc(-c4c(C)cccc4C)n3)OC[C@H]2CC2(C(F)(F)F)CC2)cc1 [Compound 682] | + (+ is <30%) | 5.52 to 6.00 | – | –
24 | Cc1cccc(C)c1-c1cc2nc(n1)NS(=O)(=O)c1cccc(c1)C(=O)N(CCC(C)C)[C@H](CCC1(C(F)(F)F)CC1)CO2 [Compound 851] | – | – | + (+ is <30%) | –
25 | Cc1cccc(C)c1-c1cc2nc(n1)NS(=O)(=O)c1cccc(c1)C(=O)N(Cc1ccnn1C)[C@H](CC(C)C)CO2 [Compound 345] | – | – | +++ (+++ is >60%) | > 6.00
26 | Cc1cccc(C)c1-c1cc2nc(n1)NS(=O)(=O)c1cccc(c1)C(=O)N(Cc1ccc(N(C)CCN(C)C)nc1)[C@H](CC(C)C)CO2 [Compound 943] | +++ (+++ is >60%) | > 6.00 | – | –
27 | Cc1cccc(C)c1-c1cc2nc(n1)NS(=O)(=O)c1cccc(c1)C(=O)N(C)C[C@@H](CNCCC(C)(C)C)O2 [Compound 1018] | – | – | + (+ is <30%) | –
28 | COc1ccc(CN2Cc3cccc(c3)S(=O)(=O)Nc3nc(cc(-c4c(C)cccc4C)n3)OC[C@H]2CC(C)C)cc1C(F)(F)F [Compound 1031] | ++ (++ is 30-60%) | > 6.00 | – | –
29 | Cc1cccc(C)c1-c1cc2nc(n1)NS(=O)(=O)c1cccc(c1)C(=O)N(CCC1CCOCC1)[C@H](CC(F)(F)F)CO2 [Compound 983] | ++ (++ is 30-60%) | > 6.00 | – | –
30 | Cc1cccc(C)c1-c1cc2nc(n1)NS(=O)(=O)c1cccc(c1)C(=O)N(CCC(C1CC1)C1CC1)[C@H](CC(C)C)CO2 [Compound 413] | +++ (+++ is >60%) | > 6.00 | – | –
31 | Cc1cccc(C)c1-c1cc2nc(n1)NS(=O)(=O)c1cccc(c1)C(=O)N(Cc1ccccc1)[C@@H](CCC1(C(F)(F)F)CC1)CO2 [Compound 852] | – | – | ++ (++ is 30-60%) | > 6.00
32 | COc1ccc(CN2C(=O)c3cccc(c3)S(=O)(=O)Nc3nc(cc(-c4c(C)cccc4C)n3)OC[C@H]2CC2(C(F)(F)F)CC2)cc1 [Compound 679] | +++ (+++ is >60%) | > 6.00 | – | –
33 | Cc1cccc(C)c1-c1cc2nc(n1)NS(=O)(=O)c1cccc(c1)C(=O)N(Cc1ccc(N3CCN(C)CC3)cc1)[C@H](CC(C)C)CO2 [Compound 856] | – | – | +++ (+++ is >60%) | > 6.00
34 | Cc1cccc(C)c1-c1cc2nc(n1)NS(=O)(=O)c1cccc(c1)C(=O)N(C)CC(CN(C)CCC(C)(C)C)O2 (stereo not drawn) [Compound 1014] | – | – | +++ (+++ is >60%) | 4.52 to 5.52
35 | Cc1cccc(C)c1-c1cc2nc(n1)NS(=O)(=O)c1cccc(c1)C(=O)N(Cc1ccc(N(C)C)nc1)[C@H](CC(C)C)CO2 [Compound 949] | +++ (+++ is >60%) | > 6.00 | – | –
36 | COc1ccccc1CN1C(=O)c2cccc(c2)S(=O)(=O)Nc2nc(cc(-c3c(C)cccc3C)n2)OC[C@H]1CC(C)C [Compound 349] | – | – | +++ (+++ is >60%) | > 6.00
37 | Cc1cccc(C)c1-c1cc2nc(n1)NS(=O)(=O)c1cccc(c1)C(=O)N(Cc1ccccc1)C(C(=O)NCc1ccccc1)CO2 (stereo not drawn) [Compound 514] | – | – | + (+ is <30%) | 4.52 to 5.52
